Data on 33 compounds can be found in ChEMBL document CHEMBL5352463, “Synthesis of novel glutarimide ligands for the E3 ligase substrate receptor Cereblon (CRBN): Investigation of their binding mode and antiproliferative effects against myeloma cell lines” (Eur J Med Chem, 2023).

The source made the active and inactive calls. The calls are words filed in the database; no cut-off is given here.

Data set [1] relates to MOLP-8. Briefly: cells. The conditions noted are these: Homo sapiens, MOLP-8, 48 h.
Description: Antiproliferative activity against human MOLP8 cells assessed as inhibition of cell proliferation incubated for 48 hrs by CellTiter Glo luminescence based MTT assay
The subject of data set [2] is KMS-12-PE. Briefly: Antiproliferative activity against human KMS-12-PE cells assessed as inhibition of cell proliferation incubated for 48 hrs by CellTiter Glo luminescence based […]. The class given is functional.
Data set [3] addresses Protein cereblon (Homo sapiens) (UniProt Q96SW2). Briefly: Binding affinity to human CRBN thalidomide binding domain by microscale thermophoresis analysis.
Data set [4] can be described thus: Cytotoxicity against PBMC (unknown origin) cells assessed as inhibition of cell growth incubated for 48 hrs by CellTiter Glo luminescence based […]. In kind it is toxicity. A general note: In ATP-based viability assays light output follows the ATP content of the culture.

Sequence of Protein cereblon (Homo sapiens) (Q96SW2 whole entry, the tested form may be a part): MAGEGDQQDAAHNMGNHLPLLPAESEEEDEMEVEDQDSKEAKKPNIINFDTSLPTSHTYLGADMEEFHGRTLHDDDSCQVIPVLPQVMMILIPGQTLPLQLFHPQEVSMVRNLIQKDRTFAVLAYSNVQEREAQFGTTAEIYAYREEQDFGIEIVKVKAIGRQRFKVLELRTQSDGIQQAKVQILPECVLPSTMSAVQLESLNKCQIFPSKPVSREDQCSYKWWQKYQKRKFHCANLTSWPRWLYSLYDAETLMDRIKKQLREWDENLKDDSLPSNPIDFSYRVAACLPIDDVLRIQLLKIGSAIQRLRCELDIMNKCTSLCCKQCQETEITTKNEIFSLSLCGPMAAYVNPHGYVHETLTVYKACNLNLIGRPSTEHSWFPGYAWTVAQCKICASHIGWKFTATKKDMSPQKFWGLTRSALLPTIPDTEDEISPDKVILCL

`Cn1cnnc1SCC1CCC(=O)NC1=O` (stereo unspecified): the concentration for half-maximal inhibition (IC50) in data set [1] and in data set [2] was above 100 µM throughout.

Take `O=C1CCC(CSc2ccc(Br)cc2)C(=O)N1` (stereo unspecified): the half-maximal inhibitory concentration (IC50) in data set [1] amounted to 18.3 µM; in data set [2] it was 12.9 µM.

As for `O=C1CCC(CSc2cccc([N+](=O)[O-])c2)C(=O)N1` (stereo unspecified), the IC50 is 15.9 µM in data set [1] and 13.6 µM in data set [2].

For the compound `O=C1CCC(SCc2ccccc2)C(=O)N1` (stereo unspecified), the IC50 in data set [1] is above 100 µM.

On to `CN1C(=O)CCC(CSc2ccc(Cl)cc2)C1=O` (stereo unspecified), for which the values for the concentration for half-maximal inhibition (IC50) in data set [1] and in data set [2] were 80.8 µM and 45.5 µM, respectively. Moreover, the outcome in data set [3] was inactive.

Turning to `O=C1CCC(CS(=O)(=O)c2ccccc2)C(=O)N1` (stereo unspecified), the IC50 in data set [1] was 5.72 µM; in data set [2], 6 µM.

In the case of `O=C1CCC(CSc2ccccc2[N+](=O)[O-])C(=O)N1` (stereo unspecified), the figures for the IC50 in data set [1] and in data set [2] were 12.8 µM and 13.3 µM, respectively.

On to `Cc1ccc(S(=O)(=O)CC2CCC(=O)NC2=O)cc1` (stereo unspecified), for which the half-maximal inhibitory concentration (IC50) was determined as 5.3 µM in data set [1] and 6.12 µM in data set [2].

On to `O=C1CCC(CSc2ccccc2C(=O)O)C(=O)N1` (stereo unspecified), for which the IC50 in data set [1] and in data set [2] was above 100 µM each time. In data set [3], the result was inactive.

The compound `CC(=O)Nc1cccc(SCC2CCC(=O)NC2=O)c1` (stereo unspecified) displayed a 50% inhibitory concentration (IC50) in data set [1] of 49.5 µM.

Turning to `Nc1ccccc1SCC1CCC(=O)NC1=O` (stereo unspecified), the IC50 in data set [1] was determined as 32.3 µM; in data set [2] it was 38.5 µM. For the same compound, the half-maximal inhibitory concentration (IC50) at 48 h in data set [4] amounted to 71.8 µM.

In the case of `O=C1CCC(CS(=O)(=O)c2ccc(F)cc2)C(=O)N1` (stereo unspecified), the half-maximal inhibitory concentration (IC50) came out at 5.8 µM in data set [1] and 6.45 µM in data set [2].

In the case of `Cc1cc(C)c(SCC2CCC(=O)NC2=O)c(C)c1` (stereo unspecified), the IC50 in data set [1] came out at 21 µM; in data set [2] it was 23.1 µM.

As to `Cc1ccc(SCC2CCC(=O)NC2=O)cc1` (stereo unspecified), the half-maximal inhibitory concentration (IC50) was determined as 38.1 µM in data set [1] and 40 µM in data set [2].

In turn, `O=C1CCC(CSc2ccc([N+](=O)[O-])cc2)C(=O)N1` (stereo unspecified) showed an IC50 in data set [1] of 8.43 µM.

Regarding `O=C1CCC(CS(=O)(=O)Cc2ccccc2)C(=O)N1` (stereo unspecified), the IC50 is 5.52 µM in data set [1] and 5.17 µM in data set [2].

On to `O=C1CCC(N2C(=O)c3ccccc3C2=O)C(=O)N1` (stereo unspecified) [THALIDOMIDE], for which the half-inhibitory concentration (IC50) in data set [1] and in data set [2] was above 75 µM in each case.

As for `O=C1CCC(CSc2ccc(F)cc2)C(=O)N1` (stereo unspecified), the IC50 in data set [1] was 32 µM; in data set [2], 29.8 µM.

As to `Cc1ccnc(SCC2CCC(=O)NC2=O)n1` (stereo unspecified), the half-inhibitory concentration (IC50) in data set [1] worked out at 11.9 µM; in data set [2], 36.8 µM.

As to `O=C1CCC(CSc2ccccn2)C(=O)N1` (stereo unspecified), the results for the half-inhibitory concentration (IC50) in data set [1] and in data set [2] were 27.4 µM and 13.3 µM, respectively.

In data set [1], `O=C1CCC(CSCc2ccccc2)C(=O)N1` (stereo unspecified) gave an IC50 above 100 µM.

Take `COc1ccc(CSCC2CCC(=O)NC2=O)cc1` (stereo unspecified): the figures for the half-maximal inhibitory concentration (IC50) in data set [1] and in data set [2] were 73.2 µM and above 100 µM, respectively.

Consider `O=C1CCC(CSc2ccc(Cl)cc2)C(=O)N1` (stereo unspecified), for which the IC50 in data set [1] came out at 20.5 µM; in data set [2], 16.2 µM.

With `CN1C(=O)CCC(CSc2ccccc2)C1=O` (stereo unspecified), the half-maximal inhibitory concentration (IC50) in data set [1] is 85.9 µM; in data set [2], above 100 µM. Further, the outcome in data set [3] was inactive.

As to `O=C1CCC(CSc2ccccc2)C(=O)N1` (stereo unspecified), the results for the IC50 in data set [1] and in data set [2] were 40 µM and 36.4 µM, respectively.

Regarding `Nc1cccc(SCC2CCC(=O)NC2=O)c1` (stereo unspecified), the 50% inhibitory concentration (IC50) was 41.2 µM in data set [1] and above 90 µM in data set [2]. Besides, in data set [4], the IC50 at 48 h is above 200 µM.

On to `CC(=O)Nc1ccc(SCC2CCC(=O)NC2=O)cc1` (stereo unspecified), for which, in data set [1], the concentration for half-maximal inhibition (IC50) amounted to 38.3 µM.

For the compound `O=C1CCC(CS(=O)(=O)c2ccc(Cl)cc2)C(=O)N1` (stereo unspecified), the IC50 turned out to be 6.81 µM in data set [1] and 5.9 µM in data set [2].

Consider `COC(=O)c1ccccc1SCC1CCC(=O)NC1=O` (stereo unspecified), for which the half-inhibitory concentration (IC50) in data set [1] came out at 19.8 µM; in data set [2], 32.6 µM.

In the case of `CC(=O)Nc1ccccc1SCC1CCC(=O)NC1=O` (stereo unspecified), the IC50 in data set [1] came to 27.4 µM.

On to `O=C1CCC(CSc2ncccn2)C(=O)N1` (stereo unspecified), for which the IC50 was found to be 23.9 µM in data set [1] and 36.7 µM in data set [2].

For `COc1ccc(CS(=O)(=O)CC2CCC(=O)NC2=O)cc1` (stereo unspecified), the IC50 in data set [1] came out at 6.27 µM; in data set [2], 5.88 µM.

As to `Nc1ccc(SCC2CCC(=O)NC2=O)cc1` (stereo unspecified), the figures for the IC50 in data set [1] and in data set [2] were 44.3 µM and above 90 µM, respectively. For the same compound, the IC50 at 48 h in data set [4] is above 200 µM.

Usually IC50 stands for the concentration at which inhibition is half-maximal.
